Measurements published in patent US9115385B2, “Methods and compositions for topoisomerase I modulated tumor suppression” (RG BIOPHARMA, LLC, priority 2006, dated 2015).
One block for each compound: values may come before it.

Tests used:
[1] = test system: PKC; conditions: cited from earlier work
[2] = target: T1, cdk1 (Homo sapiens, UniProt P06493); conditions: cited from earlier work
Target sequence in this assay (P06493 whole entry, species assumed): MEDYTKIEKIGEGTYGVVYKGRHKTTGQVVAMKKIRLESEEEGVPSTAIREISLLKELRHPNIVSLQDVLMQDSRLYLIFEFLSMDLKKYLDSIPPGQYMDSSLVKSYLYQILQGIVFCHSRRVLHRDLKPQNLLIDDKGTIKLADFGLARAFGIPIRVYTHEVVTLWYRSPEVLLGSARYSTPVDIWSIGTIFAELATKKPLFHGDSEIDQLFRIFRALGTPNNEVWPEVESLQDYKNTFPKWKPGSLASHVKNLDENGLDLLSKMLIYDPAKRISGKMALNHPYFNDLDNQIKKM
Target sequence in this assay (P14635 whole entry partner, species assumed): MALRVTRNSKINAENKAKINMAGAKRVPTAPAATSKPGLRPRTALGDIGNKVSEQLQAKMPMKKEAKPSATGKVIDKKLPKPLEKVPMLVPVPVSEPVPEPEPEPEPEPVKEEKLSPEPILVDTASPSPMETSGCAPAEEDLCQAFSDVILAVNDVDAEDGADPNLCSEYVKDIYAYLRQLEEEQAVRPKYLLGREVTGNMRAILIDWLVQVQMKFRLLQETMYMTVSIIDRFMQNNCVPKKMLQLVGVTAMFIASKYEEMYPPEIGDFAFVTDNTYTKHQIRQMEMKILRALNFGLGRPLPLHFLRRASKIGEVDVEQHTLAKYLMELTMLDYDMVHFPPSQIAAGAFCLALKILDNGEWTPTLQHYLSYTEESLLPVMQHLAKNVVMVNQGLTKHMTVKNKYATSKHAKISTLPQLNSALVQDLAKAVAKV

[3] = test system: H358 cells; assay: cell viability assay with camptothecin, H358; assay type: cell-based, human
Experimental: (§1) Control cells received no pretreatment. […] CK2 activator treatment was for the duration of the assay. Cell viability was scored 3 days post-start of camptothecin treatment.
(§2) Viability assays were performed 24 hours post-vector treatment by exposing cells for 24 hours to increasing doses of camptothecin (a topoisomerase I inhibitor) in triplicate in a 96-well viability assay, and assaying them for viability 5 days post-start of vector treatment (FIG. 5B). For each growth curve, cell viabilities were normalized to the viability of cells treated with vector only (no camptothecin), to enable a direct visualization of the sensitization effect.
(§3) Studies of a large panel of cell lines have shown that cell lines with overexpressed CK2 (FIGS. 11B1-B3 and 11C1-C3) display hyper serine phosphorylation of topo I (FIG. 11D) that correlates with sensitivity to camptothecin (FIG. 11A). […] Triplicate wells were then treated with the indicated doses of camptothecin for 18 hours, and monitored for viability 3 days post-start of treatment. […] Referring to FIGS. 11B1-B3, PKC (B1), cdk1 (B2), and CK2 (B3) levels in cancer cell lines: Cell lysates were prepared from the indicated cancer cell lines and assayed for enzymatic activities, or evaluated by Western analysis for total PKC, cdk1, or CK2 protein levels. […] Numbers below Western blot are digital readings of ser-P band intensities relative to H358.

[4] = test system: topoisomerase I; assay: topoisomerase I plasmid relaxation assay with nuclear extracts of treated cells; assay type: cell-based, human; conditions: 72 hours after treatment
[5] = test system: topo I serine phosphorylation; assay: topo I immunoprecipitation followed by phosphoserine Western in treated cells; conditions: digital quantitation of band intensities
[6] = test system: topo I phosphoserine 506 epitope; assay: Western of phosphoserine 506 epitope of topo I in treated cells; assay type: cell-based, human
[7] = test system: Hela cells; assay: cell viability assay with camptothecin, Hela; assay type: cell-based; conditions: compared with H23 and H358
Text: FIG. 8A is a graph showing the viability of the indicated cell types 3 days after treatment with camptothecin. FIG. 8B is an electrophoretic gel of a topoisomerase I immunoprecipitation followed by an ARF and topoisomerase I Western analysis. FIG. 8C is an electrophoretic gel of a topoisomerase I immunoprecipitation and a phosphoserine Western analysis. FIG. 8D is an ARF Western analysis. […] The sensitivity of Hela cells to topoisomerase I inhibitors is also intermediate to that of […] and H23 cells.
The assay in FIG. 8A was carried out as in FIG. 7D. ARF/topoisomerase I complex formation was examined using the co-immunoprecipitation assay described for FIGS. 3A and 3C. A reduced but detectable level of ARF/topoisomerase I complex formation in Hela cells was observed, compared to H358 cells (FIG. 8B). ARF/topoisomerase I complex formation in H23 cells was undetectable (FIG. 8B), confirming previous experiments (FIG. 1C).

[8] = test system: HT29 cells; assay: cell viability assay with camptothecin, HT29; assay type: cell-based, human; conditions: viability 3 days after treatment
Text: FIG. 7 is a series of graphs showing the correlation of serine phosphorylation, ARF/topoisomerase I complex formation and camptothecin sensitivity. FIGS. 7A-C show the relative amounts of (A) serine phosphorylation of topoisomerase I, (B) total topoisomerase I, and (C) ARF-topoisomerase I complex following topoisomerase I immunoprecipitation in the indicated cell types. FIG. 7D is a graph showing the viability of the indicated cell types 3 days after treatment with camptothecin.
as §3, with “Referring” for “Numbers below Western blot are digital readings of ser-P band intensities relative”, “FIGS. 11C1-C3 PKC (C1), cdk1 (C2), and CK2 (C3) levels in normal cell lines, compared to H358 and H23: Cell lysates were prepared from the indicated cell lines and evaluated as before. […]” for “H358.”

[9] = test system: H23 cells; assay: cell viability assay with camptothecin, H23; assay type: cell-based, human
Experimental: as §1, §2
Studies of a large panel of cell lines have shown that cell lines with overexpressed CK2 (FIGS. 11B1-B3 and 11C1-C3) display hyper serine phosphorylation of topo I (FIG. 11D) that correlates with sensitivity to camptothecin (FIG. 11A). […] Cells were plated at 2000 cells per well and allowed to attach. Triplicate wells were then treated with the indicated doses of camptothecin for 18 hours, and monitored for viability 3 days post-start of treatment. Viability is represented as a % of control, untreated, cell viability. Referring to FIGS. 11B1-B3, PKC (B1), cdk1 (B2), and CK2 (B3) levels in cancer cell lines: Cell lysates were prepared from the indicated cancer cell lines and assayed for enzymatic activities, or evaluated by Western analysis for total PKC, cdk1, or CK2 protein levels. Actin levels served as a control (same control for PKC, cdk1, and CK2). Referring to FIGS. 11C1-C3 PKC (C1), cdk1 (C2), and CK2 (C3) levels in normal cell lines, compared to H358 and H23: Cell lysates were prepared from the indicated cell lines and evaluated as before. Numbers below Western blots indicate digital reading of band intensities of PCK, cdk1, or CK2 Western blots, relative to H358. Referring to FIG. 11D, topo-I immunoprecipitation followed by topo-I Western (top row) or phosphoserine Western (bottom row). Numbers below Western blot are digital readings of ser-P band intensities relative to H358.

[10] = test system: CK2; assay: CK2 activity in nuclear extracts of treated H358 or H23 cells; assay type: cell-based, human
[11] = target: T2, CK2 protein (α subunit) (Homo sapiens, UniProt P68400); assay: Western analysis of CK2 protein in lysates of treated cells; assay type: cell-based; conditions: H23 cells, 72 hours
T2 construct: endogenous in cells; host or cells: H23 cells (lysates)

[12] = target: T3, CK2α catalytic subunit (Homo sapiens, UniProt P68400); assay: in vitro kinase assay of purified CK2α catalytic subunit; assay type: biochemical; conditions: 10 nM
T3 construct: purchased Active Motif, Carlsbad, Calif
Text: (§4) P=supercoiled plasmid only.

[13] = target: T1, cdk1; assay: endogenous cdk1 activity in lysates of treated H23 cells; assay type: cell-based; set-up: endogenous in cells; host or cells: H23 cells (lysates); conditions: H23 cells treated with 10 nM, three day assay
Text: as §4
Target sequence in this assay (P06493 whole entry): as the sequence (P06493 whole entry, species assumed) above
Target sequence in this assay (P14635 whole entry partner): as the sequence (P14635 whole entry partner, species assumed) above

[14] = test system: purified PKC; assay: in vitro kinase assay of purified PKC; conditions: 10 nM
[15] = test system: PKC; assay: endogenous PKC activity in lysates of treated H23 cells; conditions: H23 cells treated with 10 nM, three day assay
[16] = target: T4, purified CK2 holoenzyme (Homo sapiens, UniProt P68400); assay: in vitro kinase assay of purified CK2 holoenzyme; assay type: biochemical; conditions: 10 nM
T4 construct: purchased Promega, Madison, Wis
Text: as §4

[17] = target: T5, purified cdk1 (Homo sapiens, UniProt P06493); assay: in vitro kinase assay of purified cdk1; assay type: biochemical; conditions: 10 nM
T5 construct: purchased Enzo Life Sciences, Farmingdale, N.Y
Text: as §4

[18] = test system: ARF/topoisomerase I complex; assay: topo I immunoprecipitation followed by ARF Western in treated cells; assay type: cell-based, human; conditions: H23 cells treated with CK2 activator
[19] = test system: CK2α transcription; assay: RT-PCR of CK2α mRNA in treated H23 cells; conditions: 10 nM, 3 days
[20] = test system: ARF; assay: Western analysis of ARF protein levels in treated H358 cells; assay type: cell-based, human; conditions: 72 hours post-siRNA
Text: FIG. 5B is a series of graphs showing H358 and PC-3 cell viabilities assayed 5 days post-vector treatment (adenoviral vector, moi 20 pfu/cell, or siRNA), and 4 days post treatment with increasing doses of camptothecin. Viability is expressed as a percent of no-camptothecin control for each vector or siRNA treatment. Results represent average of triplicate wells, with standard deviations indicated. Treatments: Adp14 (ARF full length ▪); Ad1β (ARF N-term ◯); siRNA control (▾); no vector (●); siRNA exon 2 (∇). […] Digital analyses of ARF levels are shown below ARF lanes. (lower panel) H358 cell viability assay following the indicated treatments. Viability was measured 3 days post-start of camptothecin treatment.
Adenoviral vectors were used to achieve ectopic overexpression of full-length ARF (Adp14) or ARF-N-terminal domain (Ad1β), and RNA interference to down-regulate endogenous expression of ARF. As shown by the Western analysis of H358 cells in FIG. 5A, ARF levels increased by some 3-fold, as determined by digital analysis of band intensities, by 48 hours post-treatment with Adp14 (moi, 20 pfu/cell, FIG. 5A, lane 1), relative to Ad1β-treated cells (FIG. 5A, lane 2) or untreated cells (FIG. 5A, lane 4). […]

T4 sequence (P68400 whole entry): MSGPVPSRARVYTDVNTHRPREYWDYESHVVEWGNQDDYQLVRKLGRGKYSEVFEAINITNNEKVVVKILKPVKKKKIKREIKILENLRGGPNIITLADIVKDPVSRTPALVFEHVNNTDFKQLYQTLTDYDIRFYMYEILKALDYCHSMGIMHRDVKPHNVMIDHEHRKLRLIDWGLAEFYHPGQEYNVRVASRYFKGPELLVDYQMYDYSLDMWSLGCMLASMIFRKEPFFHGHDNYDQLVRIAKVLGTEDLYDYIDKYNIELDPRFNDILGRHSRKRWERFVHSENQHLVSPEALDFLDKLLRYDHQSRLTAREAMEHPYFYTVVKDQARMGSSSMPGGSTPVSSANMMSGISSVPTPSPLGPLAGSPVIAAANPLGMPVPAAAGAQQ
T4 sequence (P67870 whole entry partner): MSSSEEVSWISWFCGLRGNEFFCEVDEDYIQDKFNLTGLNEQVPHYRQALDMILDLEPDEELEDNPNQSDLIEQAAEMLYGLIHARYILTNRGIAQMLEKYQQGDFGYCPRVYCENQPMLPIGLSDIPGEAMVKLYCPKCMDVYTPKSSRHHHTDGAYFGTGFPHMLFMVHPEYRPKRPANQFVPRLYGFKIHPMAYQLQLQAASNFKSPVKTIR
T2 sequence (P68400 whole entry): as the sequence (P68400 whole entry) above
T3 sequence (P68400 whole entry): as above
T5 sequence (P06493 whole entry, species assumed): as the sequence (P06493 whole entry, species assumed) above
T5 sequence (P14635 whole entry partner, species assumed): as the sequence (P14635 whole entry partner, species assumed) above

Compound: Brc1c(Br)c(Br)c2[nH]nnc2c1Br [TBB, 4,5,6,7-tetrabromobenzotriazole]
- effect on PKC [1]: minimal effects
- effect on cdk1 [2]: minimal effects
- change of cellular response to camptothecin ([3]; pretreatment then camptothecin 18 hours, 3-day viability): more resistant to camptothecin
- conversion of supercoiled plasmid to relaxed form by nuclear extract ([4]; H358 cells, 0.75 μg lysate per reaction): essentially none is converted
- topo I serine phosphorylation, % of untreated H358 cells ([5]; H358 cells): about 10%
- cellular levels of the phosphoserine 506 epitope ([6]; H358 cells treated as in FIG. 13A): suppresses cellular levels of the phosphoserine epitope

Compound: CC[C@@]1(O)C(=O)OCc2c1cc1n(c2=O)Cc2cc3ccccc3nc2-1 [camptothecin]
- sensitivity to camptothecin [7]: intermediate to that of H23 and H358
- sensitivity to camptothecin compared with H358 and PC-3 [8]: more resistant
- response to camptothecin [9]: greatly reduced response
- sensitivity to camptothecin compared with H358 and PC-3 ([9]; viability 3 days after treatment): more resistant

- CK2 protein accumulation [11]: enhances the accumulation of CK2 protein
- stimulation of CK2α catalytic subunit activity [12]: ~6 fold
- effect on endogenous cdk1 activity [13]: no effect
- effect on purified PKC activity [14]: no effect
- stimulation of purified CK2 holoenzyme activity [16]: ~6 fold
- effect on purified cdk1 activity [17]: no effect
Compound: CCn1cnc(C(N)=O)c1C(N)=O [CK2 activator]
- increase in CK2 activity relative to untreated cells ([10]; H23 cells, 10 nM for duration of assay): 4 fold
- increase in CK2 activity ([10]; H358 cells, similar treatment (data not shown)): 10%
- effect on cell viability (activator alone) ([9]; 10 nM): no effect on cell viability
- change of cellular response to camptothecin ([9]; 10 nM activator for duration of assay, camptothecin 18 hours, 3-day viability): more sensitive to camptothecin
- lowest dose that could activate CK2 while having no effect on cell viability ([9]; range of 5-100 nM tested): 10 nM
- conversion of supercoiled plasmid to relaxed form by nuclear extract ([4]; H23 cells, 0.75 μg lysates protein per reaction): converts virtually all of the supercoiled form to relaxed form
- increase in topo I phosphorylation relative to untreated H23 cells ([5]; H23 cells): ~4.7 fold
- effect on endogenous PKC activity [15]: no effect
- cellular levels of the phosphoserine 506 epitope ([6]; H23 cells treated as in FIG. 13B): induces cellular levels of the phosphorylated epitope
- p14ARF/topo I complex formation [18]: complex formation occurs
- CK2α transcription [19]: not CK2α transcription

Compound: siRNA to exon 1β: siRNA to the exon 1β region of ARF (SEQ ID NO: 4 and 5) (chain 1 GGGUUUUCGUGGUUCACAUTT; chain 2 AUGUGAACCACGAAAACCCTC; chemistry not given here)
- ARF protein level relative to untreated cells [20]: about 0.25
- sensitivity to camptothecin after exon 1β siRNA with or without Adp14 ([3]; viability 5 days post-start of vector treatment): decreased sensitivity to camptothecin
